“And” between values parts separate entries of the source, which are not always exact repeats. Identical values can stand only once.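 The compound was tested at five concentrations on cells cultured in 96-well plates, with a 48-hour exposure period. Abbreviation: GI50, concentration required for 50% inhibition of growth. TGI: concentration producing complete growth inhibition.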
Columns and labels:
Assay in all cases: NCI-60 cell line screen, 48 h
ACHN renal = test system: ACHN renal
CCRF-CEM leukemia = test system: CCRF-CEM leukemia
HCC-2998 colon = test system: HCC-2998 colon
HCT-15 colon = test system: HCT-15 colon
KM12 colon = test system: KM12 colon
OVCAR-3 ovarian = test system: OVCAR-3 ovarian
RXF 393 renal = test system: RXF 393 renal
SR leukemia = test system: SR leukemia
KM20L2 colon = test system: KM20L2 colon
LXFL 529 NSCLC = test system: LXFL 529 NSCLC

| SMILES | GI50 (ACHN renal) | TGI (ACHN renal) | GI50 (CCRF-CEM leukemia) | TGI (CCRF-CEM leukemia) [µM] | GI50 (HCC-2998 colon) | TGI (HCC-2998 colon) | GI50 (HCT-15 colon) | TGI (HCT-15 colon) | GI50 (KM12 colon) | TGI (KM12 colon) | GI50 (OVCAR-3 ovarian) | TGI (OVCAR-3 ovarian) | GI50 (RXF 393 renal) | TGI (RXF 393 renal) | GI50 (SR leukemia) | TGI (SR leukemia) [µM] | TGI (KM20L2 colon) [µM] | TGI (LXFL 529 NSCLC) [µM] |
| --- | --- | --- | --- | --- | --- | --- | --- | --- | --- | --- | --- | --- | --- | --- | --- | --- | --- | --- |
| C=C1C(=O)O[C@H]2[C@H]1CC/C(Cn1cc(-c3cccc(Cl)c3)nn1)=C\CC[C@@]1(C)O[C@@H]21 | 0.184 µM | 0.355 µM | 0.2 µM | 0.685 | 1.64 µM | 3.29 µM | 0.192 µM | 0.479 µM | 1.78 µM | 3.74 µM | 0.475 µM | 1.63 µM | 0.558 µM | 1.85 µM | 0.231 µM | 0.886 |  |  |
| COc1ccc2nc3cc([N+](=O)[O-])ccc3c(NNc3ccccc3)c2c1 | 14.4 µM | 33.1 µM and > 83.3 µM | 10.9 µM | > 100 |  | 46.3 µM | 12 µM | > 100 µM and 67.2 µM | 6.25 µM | 19.6 µM and 32.4 µM | 10.2 µM | 21.9 µM and > 100 µM | 11.8 µM | 27.6 µM and > 100 µM |  | 61.8 |  |  |
| CN(C)CCn1cnc2ncccc2c1=O |  | > 100 µM |  | > 100 |  | > 100 µM |  |  |  | > 100 µM |  | > 100 µM |  | > 100 µM |  | > 100 | > 100 | > 100 |
| O=c1c2ccccc2nc(-c2ccccc2Cl)n1-c1nnc(C(F)(F)F)s1 | 3.74 µM | 27.7 µM | 3.13 µM | 40.7 | 4.24 µM | 19.6 µM | 2.94 µM | 15 µM | 3.68 µM | 14.1 µM | 3.25 µM | 11.4 µM | 2.77 µM | 14.4 µM | 3.73 µM | 24.6 |  |  |
| Nc1cc(C(F)(F)F)c(-c2cc(N3CCOCC3)nc(N3CCOCC3)n2)cn1 | 0.906 µM and 1.14 µM | > 100 µM | 1.56 µM and 1.49 µM | > 100 | 0.85 µM and 1.12 µM | 4.14 µM and 5.45 µM | 0.523 µM and 0.826 µM | > 41.1 µM | 1.39 µM and 1.22 µM | > 10 µM and 8.55 µM | 0.919 µM and 1.03 µM | 4.71 µM and 4.45 µM | 0.561 µM and 0.65 µM | 2.83 µM and 3.26 µM | 0.397 µM and 0.41 µM | > 30 |  |  |
| O=C(CCl)Nc1cc(Cl)c(Cl)cc1Cl |  | 4.58 µM |  | 5.99 |  | > 10 µM |  | 4.3 µM |  | 0.83 µM |  | 3.31 µM |  | 4.58 µM |  | > 10 |  |  |
| Cc1ccc(Cl)cc1NC(=O)c1cc2ccccc2cc1O | 0.351 µM | 2.8 µM | 0.733 µM | 2.84 | 0.692 µM | 2.47 µM | 0.506 µM |  | 0.396 µM | 1.89 µM | 0.313 µM | 1.02 µM | 0.55 µM | 2.23 µM | 0.217 µM | 1.21 |  |  |
| Cc1ccc(NC(=O)Nc2c(Cl)cccc2Cl)cn1 | 51.5 µM | > 100 µM | 5.79 µM | > 100 | 28 µM | > 100 µM | 5.61 µM | > 100 µM | 4.37 µM | > 100 µM | 4.5 µM | 22.7 µM | 5.85 µM | 30.9 µM | 3.89 µM | 22.7 |  |  |
| COc1cccc2nc3ccccc3nc12 |  | 63.4 µM |  | > 100 |  | > 100 µM |  | > 100 µM |  | > 100 µM |  | > 100 µM |  | > 100 µM |  | > 100 |  |  |
